Results: publication PMC12602695 (Nature Communications, 2025)

Tested on: AcTPS2
Experiment: product formation, ethyl acetate extraction, Michaelis-Menten fit
Format: biochemical, Astilbe chinensis
Conditions: 50 mM Tris-HCl pH 7.5, 1 mM MgCl2, 2 mM DTT, 12.5% glycerol, 0.1% Tween 20, 30 °C, 1 h

- Km: 23.8 µM
SMILES: CC(C)=CCC/C(C)=C/CC/C(C)=C/COP(=O)(O)OP(=O)(O)O [FPP, farnesyl diphosphate]
